Results as given in patent publication US9402917B2, “Methods for the induction of broadly anti-HIV-1 neutralizing antibody responses employing liposome-MPER peptide compositions” (priority 2009, dated 2016).

Tested on: 2F5 mAb
Assay: SPR assay with liposome-anchored peptides
Assay type: binding
Conditions: 10 seconds after the injection was stopped; peptide anchored to liposomes

Substance	binding response (background subtracted)
QQEKNEQELLELDKWASSWNYKRWIILGLNKIVRMYS-biotin	616.7 response unit
QQEKNEQELLELDKWASLWNYKRWIILGLNKIVRMYS-biotin [consensus 2F5 epitope]	494.6 response unit
